“Also recorded” adds a separate entry of the source.
Experiments:
MCF-7 cells [1] = test: Annexin-V apoptosis assay by flow cytometry; type: cell-based, human; conditions: IC50 concentration, 24 h, annexin-V staining
Protocol: Evasion of apoptosis is a striking hallmark of cancerous cells, it is an essential process that regulates abnormal growth of cells, but compromised signaling helps the cancerous cells to escape apoptosis. MARK4 overexpression also supports the growth and evasion of cancerous cells. Thus, the probability of apoptosis induction by inhibiting MARK4 was studied. The MCF-7 cells were serum starved and treated with IC50 concentration of each acridone derivative for 24 h and subsequently annexin-V staining was used to assess the apoptotic potential of these compounds.
Figure 6 MARK4 inhibition by selected acridone derivatives induces apoptosis, elicited oxidative stress by inducing ROS production in MCF-7 cells. MCF-7 cells were treated with IC50 concentrations of each compound for 24 h and processed for apoptosis analysis using Annexin V-7AAD apoptosis kit by flow cytometry. (A) Quadrants showing the anti-FITC-Annexin-V stained cells after the treatment of each compound as indicated. (B) Bar graphs represents the percentage of apoptotic MCF-7 cells attained with Annexin-V for duplicate measurements ± SD. **p < 0.001, as compared to control (untreated cells). (For anticancer activities paclitaxel has been taken as positive control). (C) Histogram showing the fluorescence emission intensity of DCF as measured by flow cytometry, MCF-7 cells were treated with IC50 concentrations of each compound for 5–6 h and processed for ROS measurements using DCFDA staining and were quantified by flow cytometry. (D) Representative images of MCF-7 cells stained with DCFDA captured on fluorescence microscope (20 X original magnification) for the assessment of ROS after the treatment of respective compound and intensity of green color represents the levels of ROS.
Annexin-V staining was used to analyse the apoptotic potential of synthesized acridone derivatives as described previously[47],[48]. Briefly, MCF-7 cells were dosed with IC50 concentration of selected acridone derivative for 24 h at 37 °C. The control cells were treated with media only. After 24 h treatment, nearly 2.0–2.5 × 10^6 cells were trypsinized and collected by centrifuging the cell suspension at 1800 rpm for 4 min. Collected cells were washed two times with 5 ml of PBS. Finally, cells were stained with FITC labeled Annexin-V antibodies using FITC-Annexin-V kit according to the manufacturer’s guidelines (BD-Biosciences, USA). Approximately, 10,000 events were analyzed for each sample through flow cytometry on BD LSR II Flow Cytometry Analyzer and FlowJo.

MCF-7 cells [2] = test: ROS measurement by DCFDA staining; type: cell-based, human; conditions: IC50 dose, 5–6 h, flow cytometry
Protocol: The respiratory cycle of mitochondria is the foremost source of reactive oxygen species (ROS), and ROS has the potential to induce cell apoptosis. Thus, it was speculated that the treatment with selected acridone derivatives might lead to the production of ROS. The MCF-7 cells were treated with the IC50 dose of compounds 5, 7b, 7d, 7f and 7h for 5–6 h and ROS levels were quantified by flow cytometry using 2-dichlorofluorescein diacetate (DCFDA) staining.
Besides flow cytometry, levels of ROS were also measured by fluorescence spectroscopy, after treatment with compounds 5, 7b, 7d, 7f and 7h, DCFDA staining and imaging on a fluorescence microscope (Fig. 6D). It is easily observed in the Fig. 6D that the intensifications of green fluorescence in case of treated cells denote the higher levels of ROS.
DCF fluorescence helps to measures innumerable ROS such as H2O2 and hydroxyl radicals. That why DCFDA staining was used to quantify the reactive oxygen species (ROS) level inside the cell as described earlier[17],[41]. Briefly, the MCF-7 cells (70–80% confluent) were incubated with IC50 concentration of each compound and positive control H2O2, respectively in a 24-well culture plates. After 5–6 h incubation of cells with respective compounds, cells were gently washed with 500 μl of prewarmed (at 37 °C) Krebs Ringer buffer (20 mM HEPES, 2 mM MgSO4, 10 mM dextrose, 127 mM NaCl, 1 mM CaCl2 and 5.5 mM KCl), subsequently 10 µM DCFDA (Invitrogen Grand Island, NY) has been added to each well and incubated further for 30 min in dark at 37 °C in a humidified CO2 incubator. After 30 min incubation, the cells were collected by trypsinization and ROS levels were quantified with the help of Flow Cytometry. Nearly 10,000 events for each sample were collected on BD LSR II Flow Cytometry Analyzer, and analyzed with help of FlowJo. For intact cell imaging, cells were washed with PBS, pH 7.4 and imaged for ROS levels estimation using the DCFDA fluorescent dye. Fluorescence images were taken on Nikon-EclipseTS100 microscope.

SMILES	apoptosis induced in MCF-7 cells (MCF-7 cells [1]) [%]	ROS levels (MCF-7 cells [2])
COC(=O)Cn1c2ccccc2c(=O)c2cc(C)ccc21 [Compound 5, Methyl 2-(2-methyl-9-oxoacridin-10(9H)-yl)acetate]	17.91	increases the production of ROS
Cc1ccc2c(c1)c(=O)c1ccccc1n2CC(=O)NCc1ccccc1 [Compound 7b, N-benzyl-2-(2-methyl-9-oxoacridin-10(9H)-yl)acetamide]	69.23	increases the production of ROS; also recorded: induce ROS to a higher extent than compound 5 and 7h
COc1ccc(CNC(=O)Cn2c3ccccc3c(=O)c3cc(C)ccc32)cc1 [Compound 7d, N-(4-methoxybenzyl)-2-(2-methyl-9-oxoacridin-10(9H)-yl)acetamide]	43.10	increases the production of ROS; also recorded: induce ROS to a higher extent than compound 5 and 7h
Cc1ccc(NC(=O)Cn2c3ccccc3c(=O)c3cc(C)ccc32)cc1 [Compound 7f, 2-(2-Methyl-9-oxoacridin-10(9H)-yl)-N-(p-tolyl)acetamide]	41.35	increases the production of ROS; also recorded: induce ROS to a higher extent than compound 5 and 7h
COc1ccccc1NC(=O)Cn1c2ccccc2c(=O)c2cc(C)ccc21 [Compound 7h, N-(2-methoxyphenyl)-2-(2-methyl-9-oxoacridin-10(9H)-yl)acetamide]	21.53	increases the production of ROS

Source: article PMC6368574, “Probing the Inhibition of Microtubule Affinity Regulating Kinase 4 by N-Substituted Acridones” (Scientific Reports, 2019)
